According to patent publication US20240158446A1, “CYCLIC COMPOUND HAVING SELECTIVE INHIBITORY ACTION ON KRAS OVER HRAS AND NRAS” (CHUGAI SEIYAKU KABUSHIKI KAISHA, priority 2021, published 2024):
Where a SMILES comes first, the peptide text is derived from it. Bridges are numbered along the chain shown (N, C = ends). [ ]: non-standard residue; d: D form. The star is where a group is joined. hPhe(3-Cl-4-CF3) = N[C@@H](CCc1ccc(C(F)(F)F)c(Cl)c1)C(=O)O; NPrPhe(4-CF3) = CCCN[C@@H](Cc1ccc(C(F)(F)F)cc1)C(=O)O; Piperazinyl(4-(3-oxetanyl)) = C1OCC1N1CCN(*)CC1; NMeGly(cPent) = CN[C@H](C(=O)O)C1CCCC1; NEtLeu = CCN[C@@H](CC(C)C)C(=O)O; NMeD = CN[C@@H](CC(=O)O)C(=O)O; NMeL = CN[C@@H](CC(C)C)C(=O)O; NEtAla = CCN[C@@H](C)C(=O)O; Azetidin(1-yl) = C1CN(*)C1; Morpholide = C1CN(*)CCO1; NMeA = CN[C@@H](C)C(=O)O; dNMeA = CN[C@H](C)C(=O)O; Ac5c = NC1(C(=O)O)CCCC1; Aze = O=C(O)[C@@H]1CCN1; Sar = CNCC(=O)O

Key:
[1] = biological target: GDP-bound KRAS wild-type protein (Homo sapiens, UniProt P01116); assay: Binding to KRAS by surface plasmon resonance (SPR), Single Cycle Kinetics; details: SPR Single Cycle Kinetics, GDP-bound KRAS wild-type protein, 1:1 binding model; read-out: KRAS KD
[2] = biological target: GDP-bound HRAS wild-type protein (Homo sapiens, UniProt P01112); assay: Binding to HRAS by surface plasmon resonance (SPR), Single Cycle Kinetics; details: SPR, GDP-bound HRAS wild-type protein vs GDP-bound KRAS wild-type protein
[3] = biological target: GDP-bound NRAS wild-type protein (Homo sapiens, UniProt P01111); assay: Binding to NRAS by surface plasmon resonance (SPR), Single Cycle Kinetics; details: SPR, GDP-bound NRAS wild-type protein vs GDP-bound KRAS wild-type protein
GDP-bound NRAS wild-type protein, sequence (P01111 whole entry): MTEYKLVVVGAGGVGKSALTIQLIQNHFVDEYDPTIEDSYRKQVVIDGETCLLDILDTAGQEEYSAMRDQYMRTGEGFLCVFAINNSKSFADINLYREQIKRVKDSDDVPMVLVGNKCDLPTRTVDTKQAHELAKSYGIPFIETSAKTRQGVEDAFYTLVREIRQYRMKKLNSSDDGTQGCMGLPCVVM

GDP-bound HRAS wild-type protein, sequence (P01112 whole entry): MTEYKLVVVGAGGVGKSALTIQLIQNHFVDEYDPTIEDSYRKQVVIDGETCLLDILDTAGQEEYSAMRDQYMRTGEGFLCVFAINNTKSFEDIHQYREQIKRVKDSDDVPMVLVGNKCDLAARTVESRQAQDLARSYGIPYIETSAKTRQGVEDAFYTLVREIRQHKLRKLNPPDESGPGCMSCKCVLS
GDP-bound KRAS wild-type protein, sequence (P01116 whole entry): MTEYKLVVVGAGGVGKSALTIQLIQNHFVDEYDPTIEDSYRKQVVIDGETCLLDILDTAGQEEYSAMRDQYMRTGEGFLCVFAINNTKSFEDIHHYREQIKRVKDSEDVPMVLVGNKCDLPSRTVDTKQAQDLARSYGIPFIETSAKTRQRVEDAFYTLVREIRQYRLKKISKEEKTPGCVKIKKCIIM

| Compound | Kd [1] | HRAS/KRAS (ratio of KD value for HRAS to KD value for KRAS) [2] | NRAS/KRAS (ratio of KD value for NRAS to KD value for KRAS) [3] |
| --- | --- | --- | --- |
| CCCN1C(=O)CN(C)C(=O)CN(C)C(=O)[C@H]([C@@H](C)CC)NC(=O)[C@H](CC(C)C)N(C)C(=O)C[C@@H](C(=O)N2CCOCC2)N(C)C(=O)[C@H](C2CCCC2)N(C)C(=O)C2(CCCC2)NC(=O)[C@@H]2CCCN2C(=O)[C@H](CCc2ccc(C(F)(F)F)c(Cl)c2)NC(=O)[C@@H](C)N(C)C(=O)[C@@H]1Cc1ccc(C(F)(F)F)cc1 [PP0148] ([NMeL]I[Sar][Sar][NPrPhe(4-CF3)][dNMeA][hPhe(3-Cl-4-CF3)]P[Ac5c][NMeGly(cPent)][NMeD]-Morpholide; lactam N-11) | 3.4 nM | B (a compound having 3 or more and less than 10 is denoted as B) | B (a compound having 3 or more and less than 10 is denoted as B) |
| CCCN1C(=O)[C@@H]2CCN2C(=O)[C@H](C)N(C)C(=O)[C@H]([C@@H](C)CC)NC(=O)[C@H](CC(C)C)N(CC)C(=O)C[C@@H](C(=O)N2CCOCC2)N(C)C(=O)[C@H](C2CCCC2)N(C)C(=O)C2(CCCC2)NC(=O)[C@@H]2CCCN2C(=O)[C@H](CCc2ccc(C(F)(F)F)c(Cl)c2)NC(=O)CN(C)C(=O)[C@@H]1Cc1ccc(C(F)(F)F)cc1 [PP0151] ([NEtLeu]I[NMeA][Aze][NPrPhe(4-CF3)][Sar][hPhe(3-Cl-4-CF3)]P[Ac5c][NMeGly(cPent)][NMeD]-Morpholide; lactam N-11) | 0.5 nM | C (A compound having a KD ratio of 0.1 or more and less than 3 is denoted as C) | C (A compound having a KD ratio of 0.1 or more and less than 3 is denoted as C) |
| CCCN1C(=O)CN(C)C(=O)CNC(=O)[C@H]([C@@H](C)CC)NC(=O)[C@H](CC(C)C)N(C)C(=O)C[C@@H](C(=O)N2CCOCC2)N(C)C(=O)[C@H](C2CCCC2)N(C)C(=O)C2(CCCC2)NC(=O)[C@@H]2CCCN2C(=O)[C@H](CCc2ccc(C(F)(F)F)c(Cl)c2)NC(=O)CN(C)C(=O)[C@@H]1Cc1ccc(C(F)(F)F)cc1 [PP0155] ([NMeL]IG[Sar][NPrPhe(4-CF3)][Sar][hPhe(3-Cl-4-CF3)]P[Ac5c][NMeGly(cPent)][NMeD]-Morpholide; lactam N-11) | 0.18 nM | C (A compound having a KD ratio of 0.1 or more and less than 3 is denoted as C) | B (a compound having 3 or more and less than 10 is denoted as B) |
| CCCN1C(=O)CN(C)C(=O)[C@@H]2CCCN2C(=O)[C@H]([C@@H](C)CC)NC(=O)[C@H](CC(C)C)N(C)C(=O)C[C@@H](C(=O)N2CCOCC2)N(C)C(=O)[C@H](C2CCCC2)N(C)C(=O)C2(CCCC2)NC(=O)[C@@H]2CCCN2C(=O)[C@H](CCc2ccc(C(F)(F)F)c(Cl)c2)NC(=O)CN(C)C(=O)[C@@H]1Cc1ccc(C(F)(F)F)cc1 [PP0165] ([NMeL]IP[Sar][NPrPhe(4-CF3)][Sar][hPhe(3-Cl-4-CF3)]P[Ac5c][NMeGly(cPent)][NMeD]-Morpholide; lactam N-11) | 2.9 nM | B (a compound having 3 or more and less than 10 is denoted as B) | B (a compound having 3 or more and less than 10 is denoted as B) |
| CCCN1C(=O)CN(C)C(=O)CN(C)C(=O)[C@H]([C@@H](C)CC)NC(=O)[C@H](CC(C)C)N(C)C(=O)C[C@@H](C(=O)N(C)C)N(C)C(=O)[C@H](C2CCCC2)N(C)C(=O)C2(CCCC2)NC(=O)[C@@H]2CCCN2C(=O)[C@H](CCc2ccc(C(F)(F)F)c(Cl)c2)NC(=O)CN(C)C(=O)[C@@H]1Cc1ccc(C(F)(F)F)cc1 [PP0169] ([NMeL]I[Sar][Sar][NPrPhe(4-CF3)][Sar][hPhe(3-Cl-4-CF3)]P[Ac5c][NMeGly(cPent)][NMeD]-NMe2; lactam N-11) | 0.035 nM | B (a compound having 3 or more and less than 10 is denoted as B) | B (a compound having 3 or more and less than 10 is denoted as B) |
| CCCN1C(=O)CN(C)C(=O)CN(C)C(=O)[C@H]([C@@H](C)CC)NC(=O)[C@H](CC(C)C)N(C)C(=O)C[C@@H](C(=O)N2CCC2)N(C)C(=O)[C@H](C2CCCC2)N(C)C(=O)C2(CCCC2)NC(=O)[C@@H]2CCCN2C(=O)[C@H](CCc2ccc(C(F)(F)F)c(Cl)c2)NC(=O)CN(C)C(=O)[C@@H]1Cc1ccc(C(F)(F)F)cc1 [PP0172] ([NMeL]I[Sar][Sar][NPrPhe(4-CF3)][Sar][hPhe(3-Cl-4-CF3)]P[Ac5c][NMeGly(cPent)][NMeD]-{Azetidin(1-yl)}; lactam N-11) | 0.13 nM | C (A compound having a KD ratio of 0.1 or more and less than 3 is denoted as C) | B (a compound having 3 or more and less than 10 is denoted as B) |
| CCCN1C(=O)CN(C)C(=O)CN(C)C(=O)[C@H]([C@@H](C)CC)NC(=O)[C@H](CC(C)C)N(C)C(=O)C[C@@H](C(=O)N2CCN(C3COC3)CC2)N(C)C(=O)[C@H](C2CCCC2)N(C)C(=O)C2(CCCC2)NC(=O)[C@@H]2CCCN2C(=O)[C@H](CCc2ccc(C(F)(F)F)c(Cl)c2)NC(=O)CN(C)C(=O)[C@@H]1Cc1ccc(C(F)(F)F)cc1 [PP0175] ([NMeL]I[Sar][Sar][NPrPhe(4-CF3)][Sar][hPhe(3-Cl-4-CF3)]P[Ac5c][NMeGly(cPent)][NMeD]-{Piperazinyl(4-(3-oxetanyl))}; lactam N-11) | 0.35 nM | B (a compound having 3 or more and less than 10 is denoted as B) | B (a compound having 3 or more and less than 10 is denoted as B) |

Second part, led by results:

| Kd [1] | Compound | HRAS/KRAS (ratio of KD value for HRAS to KD value for KRAS) [2] | NRAS/KRAS (ratio of KD value for NRAS to KD value for KRAS) [3] |
| --- | --- | --- | --- |
| 1.7 nM | CCCN1C(=O)CN(C)C(=O)CN(C)C(=O)[C@H]([C@@H](C)CC)NC(=O)[C@H](CC(C)C)N(C)C(=O)C[C@@H](C(=O)N2CCOCC2)N(C)C(=O)[C@H](C2CCCC2)N(C)C(=O)[C@@H](C)NC(=O)[C@@H]2CCCN2C(=O)[C@H](CCc2ccc(C(F)(F)F)c(Cl)c2)NC(=O)CN(C)C(=O)[C@@H]1Cc1ccc(C(F)(F)F)cc1 [PP0150] ([NMeL]I[Sar][Sar][NPrPhe(4-CF3)][Sar][hPhe(3-Cl-4-CF3)]P[dA][NMeGly(cPent)][NMeD]-Morpholide; lactam N-11) | C (A compound having a KD ratio of 0.1 or more and less than 3 is denoted as C) | B (a compound having 3 or more and less than 10 is denoted as B) |
| 2.8 nM | CCCN1C(=O)[C@@H]2CCN2C(=O)[C@H](C)N(CC)C(=O)[C@H]([C@@H](C)CC)NC(=O)[C@H](CC(C)C)N(C)C(=O)C[C@@H](C(=O)N2CCOCC2)N(C)C(=O)[C@H](C2CCCC2)N(C)C(=O)C2(CCCC2)NC(=O)[C@@H]2CCCN2C(=O)[C@H](CCc2ccc(C(F)(F)F)c(Cl)c2)NC(=O)CN(C)C(=O)[C@@H]1Cc1ccc(C(F)(F)F)cc1 [PP0152] ([NMeL]I[NEtAla][Aze][NPrPhe(4-CF3)][Sar][hPhe(3-Cl-4-CF3)]P[Ac5c][NMeGly(cPent)][NMeD]-Morpholide; lactam N-11) | B (a compound having 3 or more and less than 10 is denoted as B) | C (A compound having a KD ratio of 0.1 or more and less than 3 is denoted as C) |
| 0.33 nM | CCCN1C(=O)[C@@H]2CCN2C(=O)[C@H](C)N(C)C(=O)[C@H]([C@@H](C)CC)NC(=O)[C@H](CC(C)C)N(C)C(=O)C[C@@H](C(=O)N2CCOCC2)N(C)C(=O)[C@H](C2CCCC2)N(C)C(=O)C2(CCCC2)NC(=O)[C@H](C)NC(=O)[C@H](CCc2ccc(C(F)(F)F)c(Cl)c2)NC(=O)CN(C)C(=O)[C@@H]1Cc1ccc(C(F)(F)F)cc1 [PP0153] ([NMeL]I[NMeA][Aze][NPrPhe(4-CF3)][Sar][hPhe(3-Cl-4-CF3)]A[Ac5c][NMeGly(cPent)][NMeD]-Morpholide; lactam N-11) | C (A compound having a KD ratio of 0.1 or more and less than 3 is denoted as C) | C (A compound having a KD ratio of 0.1 or more and less than 3 is denoted as C) |
| 0.23 nM | CCCN1C(=O)[C@@H]2CCN2C(=O)[C@H](C)N(C)C(=O)[C@H]([C@@H](C)CC)NC(=O)[C@H](CC(C)C)NC(=O)C[C@@H](C(=O)N2CCOCC2)N(C)C(=O)[C@H](C2CCCC2)N(C)C(=O)C2(CCCC2)NC(=O)[C@@H]2CCCN2C(=O)[C@H](CCc2ccc(C(F)(F)F)c(Cl)c2)NC(=O)CN(C)C(=O)[C@@H]1Cc1ccc(C(F)(F)F)cc1 [PP0154] (LI[NMeA][Aze][NPrPhe(4-CF3)][Sar][hPhe(3-Cl-4-CF3)]P[Ac5c][NMeGly(cPent)][NMeD]-Morpholide; lactam N-11) | B (a compound having 3 or more and less than 10 is denoted as B) | C (A compound having a KD ratio of 0.1 or more and less than 3 is denoted as C) |
| 0.12 nM | CCCN1C(=O)[C@@H]2CCN2C(=O)CN(C)C(=O)[C@H]([C@@H](C)CC)NC(=O)[C@H](CC(C)C)N(C)C(=O)C[C@@H](C(=O)N2CCOCC2)N(C)C(=O)[C@H](C2CCCC2)N(C)C(=O)C2(CCCC2)NC(=O)[C@@H]2CCCN2C(=O)[C@H](CCc2ccc(C(F)(F)F)c(Cl)c2)NC(=O)CN(C)C(=O)[C@@H]1Cc1ccc(C(F)(F)F)cc1 [PP0156] ([NMeL]I[Sar][Aze][NPrPhe(4-CF3)][Sar][hPhe(3-Cl-4-CF3)]P[Ac5c][NMeGly(cPent)][NMeD]-Morpholide; lactam N-11) | B (a compound having 3 or more and less than 10 is denoted as B) | C (A compound having a KD ratio of 0.1 or more and less than 3 is denoted as C) |
